Measured values as given in patent US7632506B2, “Identification of new NY-ESO-1 epitopes recognized by CD4+ T-cells” (Ludwig Institute for Cancer Research, priority 2005, dated 2009).

Assays:
NW2337 CD4+ T cells = assay: Cytokine ELISPOT assays (IFNγ, TNFα, IL4, IL10) of NW2337 CD4+ T cells; assay type: cell-based, human
From the text: All ELISPOT assay described, supra were designed to detect IFN-γ secretion by the T cell clones following specific antigen stimulation. To determine the phenotype of the NY-ESO-1 specific CD4^+ T cell clones from patient NW2337, additional ELISPOT assays were designed to detect additional cytokines.
The NW2337 CD4^+ T cells were stimulated with either NY-ESO-1 p49-66 and p55-72 peptides and T cells secretion of IFNγ, TNFα, IL4 and IL10measured by ELISPOT assay. […] IL4 and IL10 was not secreted by any of the NY-ESO-1 specific CD4^+ T-cell clones tested following stimulation with NY-ESO-1 p49-66 and p55-72 peptides.

CD4+ T cells = assay: IFN-γ ELISPOT of CD4+ T cells presensitized with overlapping NY-ESO-1 18 mer peptides; assay type: cell-based, human
Procedure: Peripheral blood mono-nuclear cells (“PBMCs”) were separated from heparinized blood via Ficoll density gradient separation, using standard, art recognized techniques. Once this was done, the CD4^+ and CD8^+ T cells were separated from each other using magnetic cell sorting techniques which are well known to the art, producing CD4^+, CD8^+, and CD4^−/CD8^− cell populations.
A series of 18 mer peptides were prepared from the amino acid sequence of NY-ESO-1 as set forth in, e.g., U.S. Pat. No. 5,804,381, incorporated by reference. The peptides were designed to cover the entire sequence of NY-ESO-1, and to provide overlap.
The peptides were then individually pulsed to antigen presenting cells (“APCs”). These were CD4^−/CD8^− PBMCs taken from the same subjects who had provided the CD4^+ and CD8^+ cells. These APCs were irradiated with 3000 rads, and then pulsed with one of the peptides, at a concentration of 10 μg/ml, for 1 hour, in serum free medium. These APCs were then washed, and added to the CD4^+ cells. In the pulsing experiments, the peptides were solubilized in DMSO (100%) and then diluted with PBS to a final concentration of 10% DMSO. The CD4^+ cells had been cultured in a medium of L-arginine (242 mg/l), L-asparagene (50 mg/l), L-glutamine (300 mg/l), penicillin (10 IU/ml), streptomycin (100 μg/ml), 1% non-essential amino acids, 10% HS, and 10 ng/ml of recombinant human IL-2.
(§1) The CD4^+ T cells were restimulated weekly with 1 μg/ml of the peptide being used. On day 12, each CD4^+ culture was assayed for NY-ESO-1 peptide recognition, using the ELISPOT assay of lager, et al., Proc. Natl. Acad. Sci. USA, 97(9):4760-4765 (2000), incorporated by reference. To elaborate on this procedure, flat-bottomed, 96-well nitrocellulose plates were coated with 5 μg/ml of anti-interferon-gamma antibody and incubated overnight at 4° C. After washing with PBS, plates were blocked with 10% human serum (HS) for 1 hour at 37° C. Depending on the effector:target ratio used, various numbers of presensitized CD4^+ T-cells were added to each well along with 5×10^4 autologous peptide pulsed EBV transfected B cells (“EBV-B cells”) serving as target cells and incubated for 16 hours at 37° C. in TCM without IL-2. Plates were then washed extensively (6 times with a solution of 0.05% Tween 20/PBS), and biotinylated anti-interferon-gamma detection antibody was added at a concentration of 0.5 μg/ml. After incubation for 2 h at 37° C., plates were washed and incubated with ABC-AP Vectastain for 1 hour. Plates were washed again and developed with substrate (BCIP/NPT) until blue spots were visible. The number of blue spots/well represented the proportion of NY-ESO-1 specific CD4^+ T-cells/well was finally counted under the microscope.
The EBV-B-cells were generated from each patients' PBMC following standard methods and maintained in RPMI 1640 medium supplemented with 10 mM Hepes buffer, L-arginine (242 mg/l), L-asparagine (50mg/l), L-glutamine (300 mg/l), penicillin (10 IU/ml), streptomycin (100 μg/ml), 1% non-essential amino acids, and 10% FCS. […] PBMC's or EBV-B-cells were molecularly typed for HLA expression using standard procedures.

HLA-DQB1 03011 = biological target: T1, HLA-DQB1 03011 (Homo sapiens, UniProt P01909+P01920); assay: ELISPOT with peptide pulsed allogeneic EBV-B-cells of known HLA class II type (HLA restriction); assay type: cell-based
T1 construct: peptide pulsed allogeneic EBV-B-cells with known HLA class II types as stimulator cells; endogenous in cells; host or cells: allogeneic patient-derived EBV-transformed B-cell lines (NW-2078, NW-2081, NW-2395, NW-2234, NW-2337, NW-1100, MZ-1257)
Procedure: In order to determine the HLA molecule to which the novel NY-ESO-1 peptides described above bind, the NW2337 CD4^+ T-cell clones NW2337-CD4-1 and NW2337-CD4-10, were tested in ELISPOT assays using a range of peptide pulsed allogeneic EBV-B-cells with known HLA class II types as stimulator cells as indicated in the following Table. The EBV-B-cell lines were HLA typed using standard methods as described above.
The NW2337-CD4-1 clone recognized allogenic peptide pulsed EBV-B cells from patients NW-2078, NW-2081, NW-2395, NW-2234, NW-2337, NW-1100 and MZ-1257. The allogenic EBV-B cells were recognized by the T cells when pulsed exogenously with either the NY-ESO-1 p49-66 or p55-72 as observed with autologous EBV-B cells described above. […] None of the EBV-B-cells lines that were not recognized by the T cells expressed this MHC allele. […] Again the NY-ESO-1 positive MZ-1257 EBV-B-cell line was recognized with or without exogenous peptide.

CD8+ T-cells = assay: ELISPOT of CD8+ T-cells presensitized with Ad2/ESO infected PBMC; assay type: cell-based, human
Procedure: To examine the possibility that one of the novel MHC class II epitopes described in this study may also represent an MHC class I binding peptide epitope, CD8^+ T-cells from the patients described above, were presensitized with autologous CD4^−/CD8^− PBMC infected with the recombinant adenovirus Ad2/ESO. Responder T-cells were tested in ELISPOT assays for recognition of autologous APC's pulsed with the 28 overlapping 18 mer peptides described in Table 2.

[1] = system: CD4+ T cell clones NW2337-CD4-1 and NW2337-CD4-10; assay: Peptide titration ELISPOT assay with overlapping NY-ESO-1 peptides; assay type: cell-based, human; details: peptide 10 μM to 0.1 nM pulsed onto autologous EBV-B-cells
Procedure: as §1
To further identify the exact epitope required for CD4^+ T cell recognition by these two CD4^+ T cell clones, a peptide titration assay was performed using overlapping NY-ESO-1 peptides (FIG. 2) at concentrations between 10 μM and 0.1 nM, pulsed onto autologous EBV-B-cells and tested in ELISPOT assays (FIG. 3).

T1 sequence (P01920 33-261, other chains not shown): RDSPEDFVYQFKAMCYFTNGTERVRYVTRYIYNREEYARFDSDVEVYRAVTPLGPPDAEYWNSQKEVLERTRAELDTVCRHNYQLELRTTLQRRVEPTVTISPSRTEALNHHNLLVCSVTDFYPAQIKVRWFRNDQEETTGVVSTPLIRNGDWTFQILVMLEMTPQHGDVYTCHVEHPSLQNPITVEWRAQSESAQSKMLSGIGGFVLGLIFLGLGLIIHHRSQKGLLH

Substance: P55-72: synthetic 18 mer peptide, amino acids 55-72 of NY-ESO-1 (GPGGGAPRGPHGGAASGL; UniProt P78358 55-72, looked up, fragment) [Peptide P55-72]
- IFN-γ secretion by stimulated T cell clones (NW2337 CD4+ T cells): produced
- IL4 secretion by stimulated T cell clones (NW2337 CD4+ T cells): not secreted
- IL10 secretion by stimulated T cell clones (NW2337 CD4+ T cells): not secreted
- TNF-α secretion by stimulated T cell clones (NW2337 CD4+ T cells): produced
- Patient T cells 1 (CD4+ T cells; IFN-γ ELISPOT, day 12, CD4+ T cells of patient 1, autologous peptide pulsed EBV-B cells as targets): + (+ indicates >50 spots (all + scores indicated were >100 spots))
- Patient T cells 2 (CD4+ T cells; IFN-γ ELISPOT, day 12, CD4+ T cells of patient 2, autologous peptide pulsed EBV-B cells as targets): + (+ indicates >50 spots (all + scores indicated were >100 spots))
- Patient T cells 3 (CD4+ T cells; IFN-γ ELISPOT, day 12, CD4+ T cells of patient 3, autologous peptide pulsed EBV-B cells as targets): + (+ indicates >50 spots (all + scores indicated were >100 spots))
- patients whose CD4+ T cells recognized the peptide (CD4+ T cells; three patients tested): all three patients
- MHC class II allele presenting the peptide to NW2337-CD4-10 T cells (HLA-DQB1 03011; only HLA-DQB1 03011 expressing allogenic EBV-B cell lines recognized): HLA-DQB1 03011
- MHC class II allele presenting the peptide to NW2337-CD4-1 T cells (HLA-DQB1 03011; only shared allele of the recognized peptide pulsed allogenic EBV-B cell lines): HLA-DQB1 03011
- NW1454 CD8+ T-cell recognition of peptide pulsed T2-A3 and HLA-A3 expressing NW115 EBV-B-cell target cells (CD8+ T-cells): recognition
- recognition by CD8+ T-cells (CD8+ T-cells; CD8+ T-cells from patient NW1231, NW1454 and NW2427, autologous APC's pulsed with peptide): observed
- HLA class I molecule presenting the peptide (CD8+ T-cells; only shared HLA class I allele of the three patients): HLA-A3
- recognition by clone NW2337-CD4-1 [1]: recognized
- recognition by clone NW2337-CD4-10 [1]: able to recognize
